Experimental data: patent US9493833B1, “Methods for preventing induced synthesis of proteasomes in human cells” (THE REGENTS OF THE UNIVERSITY OF CALIFORNIA, priority 2009, dated 2016)
Where a SMILES comes first, the peptide text is derived from it. The star is where a group is joined. Cbz = O=C(OCc1ccccc1)*

How the values were obtained:
MDA-MB-231 cells = assay: Cell-titer glo cell viability, MG132 combined with TSA or SAHA; format: cell-based, human; conditions: MDA-MB-231, MG132 5 μM combined with TSA or SAHA, 48 hrs
Experimental: (§1) LNCaP cells were subjected to treatment with one of MG132 (1 μM), TSA (1 μM), SAHA (5 μM), MG132 (1 μM)+TSA (1 μM), or MG132 (1 μM)+SAHA (1 μM) for 10 hrs and the RNA from these cells was used for quantitative RT-PCR to assess the mRNA levels of representative PSM genes (FIG. 5A). The values were normalized to GAPDH and the DMSO-treated sample was set to 1. A representative experiment performed in duplicates is shown. MDA-MB-231 cells were treated with different agents at the same concentrations as above (except MG132 which was used at 5 μM) for 48 hrs after which the cells were used for cell-titer glo assay to assess cell viability. Data from an experiment performed in quadruplicates is shown (FIG. 5B). LNCaP cells transfected with 8×ARE-SV40-Luc construct alone (control) or co-transfected with Flag-Nrf1 were further treated with different agents as indicated (FIG. 10). pRL-TK renilla luciferase expression construct was used as a transfection control for normalization. Sixteen hours later, the cells were harvested and used for Luciferase assay.
Cells in 96-well plates were treated with different agents as required and cell viability was assessed using the Cell-Titer Glo kit (G7572; Promega) according to the protocol recommended by the manufacturer. By employing a luminescence read-out, this kit quantifies the level of ATP which is proportional to the number of viable cells.

PSM genes [1] = assay: PSM gene mRNA by quantitative RT-PCR in LNCaP cells treated with MG132 and HDAC inhibitors; format: cell-based, human; conditions: 10 hrs; for MG132-mediated upregulation of representative PSM genes: MG132 1 μM + TSA 1 μM or MG132 1 μM + SAHA 1 μM; for steady-state PSM gene expression: TSA 1 μM or SAHA 5 μM alone
Experimental: as §1
(§2) RNA was isolated using the RNeasy kit (Qiagen). cDNA was prepared using the Superscript III first strand synthesis kit (Invitrogen) according to the manufacturer's recommendations. Quantitative PCR (qPCR) was performed using the SYBR GreenER supermix (Invitrogen).

[2] = tested on: anti-oxidant response elements (8×AREs); assay: 8×ARE-SV40-Luc luciferase reporter assay in LNCaP cells; format: cell-based, human; conditions: for luciferase activity (8×ARE reporter) in combination with MG132: TSA or SAHA added with MG132, 16 hours
Experimental: TSA and SAHA were assayed using a luciferase reporter construct. The luciferase reporter was driven by a promoter harboring multimerized anti-oxidant response elements (8×AREs) and was transfected into LNCaP cells.
as §1
(§3) Cells were transiently transfected with the firefly (promoter reporters) and renilla luciferase (pRL-TK; Promega) constructs along with effector plasmid as required. After harvesting the cells, luciferase assays were performed using the Dual Luciferase reporter assay system (E1910; Promega) according to the instructions from the manufacturer. The firefly luciferase activity was normalized to renilla luciferase activity for all experiments.

[3] = after administration; cited from earlier work
PSMA4 ARE = assay: 3×PSMA4-ARE-Luc / 3×PSMA4-mutARE-Luc luciferase assay in LNCaP cells; format: cell-based, human; conditions: for luciferase activity (3×PSMA4-mutARE-Luc, AREs mutated) / luciferase activity (3×PSMA4-ARE-Luc): LNCaP; for luciferase activity (3×PSMA4-ARE-Luc): versus DMSO-treated / vector control, MG132 12 hrs
Experimental: (§4) Sequence alignment of the genomic region close to the transcription start site (indicated by +1) of the PSMB6 gene in mouse and human. The putative ARE sequences and the start codon are marked as shown (FIG. 6). WT and Nrf1^−/− MEFs were transfected with the PSMB6-Luc construct and 24 hrs post-transfection, the cells were treated with the indicated concentration of MG132 for 12 hrs after which luciferase assays were performed as described herein (FIG. 7). Error bars denote SD (n=3). […] LNCaP cells were transiently transfected with the indicated reporter constructs along with either a vector control or Flag-Nrf1 expression construct. Forty-eight hours (hrs) after transfection, the cells were further incubated with the indicated concentration of MG132 for 12 hrs after which luciferase assays were performed as described herein (FIG. 9). Error bars denote SD (n=3).
as §3

[4] = tested on: PSM genes (PSMA7, PSMB4, PSMB7, PSMC1, PSMC4, PSMD1, PSMD12); assay: mRNA levels of representative PSM genes by quantitative RT-PCR in LNCaP and HT-29 cells treated with proteasome inhibitors or MLN4924; format: cell-based, human; conditions: 10 hrs, normalized to GAPDH, DMSO set to 1
Experimental: The human prostate cancer LNCaP and colon cancer HT29 cell lines were incubated with different proteasome inhibitors (MG132, YU101, and bortezomib) or the Nedd8 pathway inhibitor MLN4924 (Soucy et al., 2009, Nature, 458, 732-736). Prostate cancer LNCaP and colon cancer HT-29 cells were treated with the indicated concentrations of proteasome inhibitors (MG132, YU101, and Bortezomib) or the Nedd8 pathway inhibitor (MLN4924) for 10 hrs, and mRNA levels of representative PSM genes were analyzed by quantitative RT-PCR (FIGS. 1A-1C). The values were normalized to GAPDH and for each cell line the DMSO treated sample was set to 1. Error bars denote SD (n=3). […] MLN4924 works by inhibiting the Nedd8-activating enzyme, the result of which is the accumulation of cullin-RING ligase (CRL) substrates (Soucy et al., 2009).
as §2

PSM genes [5] = assay: mRNA levels of representative PSM genes by quantitative RT-PCR in MEFs (WT, Nrf1−/−, Nrf2−/−; retroviral transduction); format: cell-based, mouse; conditions: 10 hrs
Experimental: Specifically, MEFs of different genotypes (WT, Nrf1^−/−, and Nrf2^−/−) were treated for 10 hrs with MG132 as indicated (FIG. 2A), and the cell lysates were used for immunoblotting to detect protein levels of Nrf1 (with the antibody raised against the N-terminus) and Nrf2. β-actin protein levels were used as loading control. RNA from MEFs under the same treatment conditions as above was used for quantitative RT-PCR to assess the mRNA levels of representative PSM genes (FIGS. 2B-2C), The values were normalized to GAPDH and the DMSO treated WT sample was set to 1. Error bars denote SD (n=3).
Nrf1^−/− MEFs were transduced with retrovirus expressing one of Flag-Nrf1, Flag-Nrf1-HA or vector control and 72 hrs later treated with MG132 for 10 hrs as indicated. The cell lysates were used for immunoblotting to detect the levels of exogenous Nrf1 by using tag-specific antibodies (FIG. 3A). β-actin protein levels were used as loading control. RNA from Nrf1^−/− MEFs under the same viral transduction and treatment conditions as above was used for quantitative RT-PCR to assess the mRNA levels of representative PSM genes (FIG. 3B). The values were normalized to GAPDH and the vector-transduced DMSO-treated sample was set to 1. Error bars denote SD (n=3).
WT and Nrf1^−/− MEFs were transduced with retrovirus expressing sh-Nrf1 or vector control and 72 hrs later treated with MG132 for 10 hrs as indicated. […] RNA from MEFs under the same viral transduction and treatment conditions as above was used for quantitative RT-PCR to assess the mRNA levels of representative PSM genes (FIG. 4B). […]
as §2

murine PSMB6 promoter = assay: PSMB6-Luc promoter-reporter luciferase assay in MEFs; format: cell-based, mouse; conditions: WT MEFs, MG132 12 hrs
Experimental: as §4, §3

[6] = target: T1, proteasome (chymotryptic site) (Homo sapiens, UniProt P20618+P28074); assay: Proteasome activity recovery assay in HT29 cells after drug wash-out; format: cell-based
T1 construct: endogenous in cells; host or cells: HT29 human colon cancer cells, treated intact; activity measured in freeze-thaw lysate
Experimental: Cells were frozen at different time points as indicated and were used for proteasome activity assays as described herein. For each time point, the results are normalized to DMSO-treated control in the case of hatched lines and to CHX-treated control in the case of solid lines. Error bars denote SD (n=3). […] The results were normalized to DMSO-treated control for each cell type. Error bars denote S.E.M. (n=2). […] The next day, the cells were treated with indicated concentrations of YU101 and the pan-caspase inhibitor Z-VAD-FMK, and further incubated for 72 hrs. The cell viability was then assessed using the CellTiter-Glo method (FIG. 12A). The results were normalized to DMSO-treated control which was set to 100% in each case. Error bars denote S.E.M. (n=2). […] The cell lysates were used for immunoblotting to detect the levels of Nrf1 (with the antibody raised against N-terminus) and cleaved caspase-3. β-actin protein levels were used as loading control. […] The cells were then washed with PBS thrice and allowed to recover in fresh medium. At definite time points, the cells were freeze-thawed in TE buffer (20 mM Tris pH 8, 5 mM EDTA) and subsequently used for measuring proteasome activity as described previously (Demo et al., 2007).

Molecule	apoptosis / cell viability in combination with MG132 (MDA-MB-231 cells)	MG132-mediated upregulation of representative PSM genes (PSM genes [1])	steady-state PSM gene expression (PSM genes [1])	luciferase activity (8×ARE reporter) in combination with MG132 [2]	clearance from the patients' blood [3]	luciferase activity (3×PSMA4-mutARE-Luc, AREs mutated) (PSMA4 ARE)	luciferase activity (3×PSMA4-ARE-Luc) (PSMA4 ARE)	mRNA levels of PSM genes [4]	other results
CC(/C=C/C(=O)NO)=C\[C@@H](C)C(=O)c1ccc(N(C)C)cc1 [TSA, trichostatin A]	enhanced apoptosis (decreased viability)	reproducibly inhibited the MG132-mediated upregulation of representative PSM genes	little effect on steady-state PSM gene expression	basal levels of luciferase activity were observed					
CC(C)C[C@H](NC(=O)[C@H](CCc1ccccc1)NC(=O)CN1CCOCC1)C(=O)N[C@@H](Cc1ccccc1)C(=O)N[C@@H](CC(C)C)C(=O)[C@@]1(C)CO1 [carfilzomib]					rapidly cleared from the patients' blood within the first hour				
CC(C)C[C@@H](C=O)NC(=O)[C@H](CC(C)C)NC(=O)[C@H](CC(C)C)NC(=O)OCc1ccccc1 [MG132] (Cbz-Leu-Leu-Leu-aldehyde)						neither MG132 nor overexpressed Flag-Nrf1 induced the synthetic promoter construct	an increase in luciferase activity was observed when compared to DMSO-treated control	robustly induce mRNA levels of several PSM genes	luciferase activation (3×PSMA4-ARE-Luc) in cells overexpressing Flag-Nrf1 (PSMA4 ARE; LNCaP with Flag-Nrf1, plus MG132): further enhanced; mRNA levels of PSM genes after MG132 (PSM genes [5]; Nrf1−/− MEFs): severely blunted in their ability to upregulate PSM genes; mRNA levels of PSM genes after MG132 (PSM genes [5]; Nrf2−/− MEFs): induced mRNA levels of PSM genes; mRNA levels of PSM genes after MG132 (PSM genes [5]; WT MEFs): induced mRNA levels of PSM genes; luciferase activity (PSMB6 promoter-reporter) (murine PSMB6 promoter): dose dependent increase in luciferase activity; luciferase expression (8×ARE reporter) ([2]; MG132 alone versus untreated cells): luciferase expression was increased compared to non-test (untreated) cells; inhibition at 2 µM ([6]; HT-29, read-out: inhibition of the chymotryptic site): 80 to 90%
O=C(CCCCCCC(=O)Nc1ccccc1)NO [SAHA, suberoylanilide hydroxamic acid]	enhanced apoptosis (decreased viability)	reproducibly inhibited the MG132-mediated upregulation of representative PSM genes	little effect on steady-state PSM gene expression	basal levels of luciferase activity were observed					
CC(C)C[C@H](NC(=O)[C@H](Cc1ccccc1)NC(=O)c1cnccn1)B(O)O [bortezomib]					rapidly cleared from the patients' blood within the first hour			robustly induce mRNA levels of several PSM genes	inhibition at 0.04 µM ([6]; HT-29, HT29, 1 hr, MG132 2 μM, YU101 100 nM, Bortezomib 40 nM): 80 to 90%
Flag-Nrf1: human Nrf1 with N-terminal 3×FLAG tag, expressed from pMSCV-hyg retroviral vector (protein, UniProt Q14494 1-772, looked up, N-terminal 3xFLAG tag, human Nrf1 with N-terminal 3×FLAG tag, expressed from pMSCV-hyg retroviral vector) Endoplasmic reticulum …: MLSLKKYLTEGLLQFTILLSLIGVRVDVDTYLTSQLPPLREIILGPSSAYTQTQFHNLRNTLDGYGIHPKSIDLDNYFTARRLLSQVRALDRFQVPTTEVNAWLVHRDPEGSVSGSQPNSGLALESSSGLQDVTGPDNGVRESETEQGFGEDLEDLGAVAPPVSGDLTKEDIDLIDILWRQDIDLGAGREVFDYSHRQKEQDVEKELRDGGEQDTWAGEGAEALARNLLVDGETGESFPAQVPSGEDQTALSLEECLRLLEATCPFGENAEFPADISSITEAVPSESEPPALQNNLLSPLLTGTESPFDLEQQWQDLMSIMEMQAMEVNTSASEILYSAPPGDPLSTNYSLAPNTPINQNVSLHQASLGGCSQDFLLFSPEVESLPVASSSTLLPLAPSNSTSLNSTFGSTNLTGLFFPPQLNGTANDTAGPELPDPLGGLLDEAMLDEISLMDLAIEEGFNPVQASQLEEEFDSDSGLSLDSSHSPSSLSSSEGSSSSSSSSSSSSSSASSSASSSFSEEGAVGYSSDSETLDLEEAEGAVGYQPEYSKFCRMSYQDPAQLSCLPYLEHVGHNHTYNMAPSALDSADLPPPSALKKGSKEKQADFLDKQMSRDEHRARAMKIPFTNDKIINLPVEEFNELLSKYQLSEAQLSLIRDIRRRGKNKMAAQNCRKRKLDTILNLERDVEDLQRDKARLLREKVEFLRSLRQMKQKVQSLYQEVFGRLRDENGRPYSPSQYALQYAGDGSVLLIPRTMADQQARRQERKPKDRRK						neither MG132 nor overexpressed Flag-Nrf1 induced the synthetic promoter construct	activated this synthetic promoter construct		
